pIC50: −log10 of the molar value. Converted amounts (≈) assume the structure as drawn. Read-outs that look alike come from different tables or passages of the source. Marks after values point to notes of the source that are not given here.
Legend:
[1] = tested on: Acinetobacter baumannii DSM 30008; experiment: Antimicrobial serial dilution assay (MIC); type: cell-based
Procedure: (§1) The antimicrobial activity (minimum inhibitory concentration, MIC) of the compounds was determined against Acinetobacter baumannii DSM 30008, Bacillus subtilis DSM 10, Chromobacterium violaceum DSM 30191, Escherichia coli DSM 1116, Mycobacterium smegmatis ATCC 700084, Pseudomonas aeruginosa PA14, Staphylococcus aureus DSM 346, Candida albicans DSM1665, Mucor hiemalis DSM 2656, Pichia anomala DSM 6766, Rhodotorula glutinis DSM 10134 and Schizosaccharomyces pombe DSM 70572 in a serial dilution assay as previously described.

[2] = tested on: Candida albicans DSM 11225 biofilm; experiment: Biofilm assay, inhibition of biofilm formation; type: cell-based; design: unit not given here; conditions: (/) no activity
Procedure: The stock of fungal pathogen Candida albicans DSM 11225 from −20 °C was cultured in 25 mL YPD (Yeast extract Peptone Dextrose; dextrose 20 g/L, peptone 20 g/L, yeast extract 10 g/L) medium in a 250 mL flask at 30 °C with shaking 100 rpm for 18 h. Turbidity of the broth was measured and diluted to match the turbidity of a 0.05 McFarland standard in RPMI 1640 medium (Gibco, New York, NY, USA, Thermo Fisher Scientific). Afterwards, 150 μL of the fungal dispersion was added into each well of a 96-well microtiter plate (Falcon no. 351172, Thermo Fisher Scientific) and further incubated for 90 min. The supernatant was removed, and the plate was washed once by using PBS buffer. Compounds were serially diluted in 150 μL in fresh medium to concentrations of 250–2 μg/mL. Staining and analysis were conducted as previously described. Methanol (2.5%) and farnesol (250–2 μg/mL) were used as solvent and positive controls. Error bars indicate SD with duplicates in two biological repeats.

[3] = tested on: Mycobacterium smegmatis ATCC 700084; experiment: Antimicrobial serial dilution assay (MIC); type: cell-based; conditions: Mycobacterium smegmatis ATCC 700084; n.i.: no inhibition
Procedure: as §1

[4] = tested on: Staphylococcus aureus DSM 346; experiment: Antimicrobial serial dilution assay (MIC); type: cell-based; conditions: Staphylococcus aureus DSM 346; n.i.: no inhibition
Procedure: as §1

[5] = tested on: Escherichia coli DSM 1116; experiment: Antimicrobial serial dilution assay (MIC); type: cell-based; conditions: n.i.: no inhibition
Procedure: as §1

[6] = tested on: Schizosaccharomyces pombe DSM 70572; experiment: Antimicrobial serial dilution assay (MIC); type: cell-based; conditions: Schizosaccharomyces pombe DSM 70572; n.i.: no inhibition
Procedure: as §1

[7] = tested on: Pseudomonas aeruginosa PA14; experiment: Antimicrobial serial dilution assay (MIC); type: cell-based; conditions: n.i.: no inhibition
Procedure: as §1

[8] = tested on: Chromobacterium violaceum DSM 30191; experiment: Antimicrobial serial dilution assay (MIC); type: cell-based
Procedure: as §1

[9] = tested on: Rhodotorula glutinis DSM 10134; experiment: Antimicrobial serial dilution assay (MIC); type: cell-based; conditions: Rhodotorula glutinis DSM 10134; n.i.: no inhibition
Procedure: as §1

[10] = tested on: Mucor hiemalis DSM 2656; experiment: Antimicrobial serial dilution assay (MIC); type: cell-based
Procedure: as §1

[11] = tested on: Candida albicans DSM1665; experiment: Antimicrobial serial dilution assay (MIC); type: cell-based; conditions: n.i.: no inhibition
Procedure: as §1

[12] = tested on: Pichia anomala DSM 6766; experiment: Antimicrobial serial dilution assay (MIC); type: cell-based; conditions: Pichia anomala DSM 6766; n.i.: no inhibition
Procedure: as §1

[13] = tested on: Bacillus subtilis DSM 10; experiment: Antimicrobial serial dilution assay (MIC); type: cell-based; conditions: Bacillus subtilis DSM 10, n.i.: no inhibition
Procedure: as §1

[14] = tested on: Staphylococcus aureus DSM 1104 preformed biofilm; experiment: Biofilm assay, dispersal of preformed biofilm; type: cell-based; design: Antibiofilm activity, preformed S. aureus: unit not given here; conditions: for Antibiofilm activity, preformed S. aureus: (/) no activity
Procedure: Staphylococcus aureus DSM 1104 from −20 °C stock was cultured in 25 mL CASO (Casein–Peptone Soymeal–Peptone; peptone from casein 15 g/L, peptone from soy flour 5 g/L, NaCl 5 g/L, pH 7.3) medium at 37 °C at 100 rpm in 250 mL for 20 h. The precultured suspension of S. aureus was adjusted so that its OD600 matched the turbidity of a 0.001 McFarland standard. S. aureus was incubated in 96-well tissue microtiter plates (TPP tissue culture ref.no 92196, Switzerland) for 24 h at 150 rpm in […] CASO medium with 4% glucose broth. The supernatant was removed from the wells and 150 μL of the respective media (fresh) was added to the wells, together with the serially diluted compounds (250–2 μg/mL). The plates were incubated for a further 24 h at 37 °C. Staining of the biofilms was carried out as described previously. Standard deviation (SD) of two repeats with duplicates each were 10% or less. Methanol (2.5%) and microporenic acid A (250–2 μg/mL) were used as solvent and positive controls. Error bars indicate SD with duplicates in two biological repeats.

[15] = tested on: H. fraxineus (isolate RH02-T6-B4-2); experiment: Agar disc diffusion assay; type: cell-based, Hymenoscyphus fraxineus; conditions: 6 mm disc, 7 days, 21 °C
Procedure: The antifungal activity of the isolated compounds against H. fraxineus was assessed by the disc diffusion method using 9 cm diameter petri dishes as previously described […] Three sterile filter paper discs per plate were gently placed on dried potato–dextrose agar. The fungicide nystatin was applied as the positive control (20 and 50 µg/paper disc) and methanol as the negative control (10 µL/paper disc). The test plates were incubated at 21 °C for 7 days, the inhibition diameters were measured, and the activity was evaluated compared to nystatin.
Figure S44: Agar disc (6 mm diam.) diffusion assay of compound CJ-17,572 (1) against H. fraxineus RH02-T6-B4-2, grown in 9-cm petri dishes on agar-based PD
medium with H. fraxineus, N - positive control nystatin, M - negative control methanol, CJ – 1.
Table S1. Antifungal activity of the compounds 1-6. n.i.: no inhibition, n.t.: not tested.
Compounds Amount ( µg/paper disc)
Peziculastatin n.t. n.i. 8 mm
Mycorrhizin A 19 mm 31 mm n.t.
Cryptosporioptide A n.t. n.i. n.i.
Cryptosporioptide B n.t. n.i. 8 mm
Cryptosporioptide C n.t. n.i. n.i.
Nystatin 21 mm 24 mm n.t.

[16] = MTT cytotoxicity assay; type: cell-based; conditions: read-out: Cytotoxic activity (IC50)
Procedure: The in vitro cytotoxicity assay was performed using the MTT (3-(4,5-dimethylthiayol-2-yl)-2,5-diphenyltetrazolium bromide) test in 96-well microtiter plates as previously described.

[17] = 50 µg/paper disc, n.i.: no inhibition

## O=C(O)c1cn(C2CC2)c2cc(N3CCNCC3)c(F)cc2c1=O [ciprofloxacin, reference compound]
[1]; DSM30008, n.i.: no inhibition, read-out: Minimum inhibitory concentration (MIC)
  MIC: 0.26 µg/mL (≈ 0.785 µM)

## CCC(C(=O)O)C(=O)OC1C2(C)Oc3ccc(-c4ccc5c(c4O)C(=O)C4=C(O)C6OC6(C)C(OC(=O)C(CC)C(=O)O)C4(C)O5)c(O)c3C(=O)C2=C(O)C2OC21C (stereo not shown) [Compound 6, Cryptosporioptide C]
[2]; 62.5 µg/mL
  Antibiofilm activity, C. albicans: 40
[2]; 125 µg/mL
  Antibiofilm activity, C. albicans: 62
[2]; 250 µg/mL
  Antibiofilm activity, C. albicans: 78
[3]
  Minimum inhibitory concentration (MIC): n.i.
[4]
  Minimum inhibitory concentration (MIC): n.i.
[5]
  Minimum inhibitory concentration (MIC): n.i.
[6]
  Minimum inhibitory concentration (MIC): n.i.
[7]
  Minimum inhibitory concentration (MIC): n.i.
[8]; n.i.: no inhibition
  Minimum inhibitory concentration (MIC): n.i.
[9]
  Minimum inhibitory concentration (MIC): n.i.
[10]; Mucor hiemalis, DSM2656, read-out: Minimum inhibitory concentration (MIC)
  MIC: 66.6 µg/mL (≈ 82.6 µM)
[11]
  Minimum inhibitory concentration (MIC): n.i.
[1]; n.i.: no inhibition
  Minimum inhibitory concentration (MIC): n.i.
[12]
  Minimum inhibitory concentration (MIC): n.i.
[13]
  Minimum inhibitory concentration (MIC): n.i.
[14]; 2 µg/mL
  Antibiofilm activity, preformed S. aureus: 39
[14]; 3.9 µg/mL
  Antibiofilm activity, preformed S. aureus: 49
[14]; 7.8 µg/mL
  Antibiofilm activity, preformed S. aureus: 68
[14]; 15.6 µg/mL
  Antibiofilm activity, preformed S. aureus: 72
[14]; 31.3 µg/mL
  Antibiofilm activity, preformed S. aureus: 78
[14]; 62.5 µg/mL
  Antibiofilm activity, preformed S. aureus: 78
[14]; 125 µg/mL
  Antibiofilm activity, preformed S. aureus: 77
[14]; 250 µg/mL
  Antibiofilm activity, preformed S. aureus: 23
[14]; concentrations between 15.6 µg/mL–125 µg/mL
  efficacy of biofilm eradication, preformed biofilms of S. aureus: 70–80%
[14]; even up to 2 µg/mL
  dispersal effects on preformed biofilms of S. aureus: 40%
[15]; [17]
  Antifungal activity, inhibition diameter: n.i.
[15]; 100 µg/paper disc, n.i.: no inhibition
  Antifungal activity, inhibition diameter: n.i.

## C[C@@H]1[C@H](O)[C@@H](C)/C=C/C=C/CC/C=C/C=C/C=C/C=C/C(O[C@H]2O[C@H](C)[C@@H](O)[C@H](N)[C@@H]2O)CC2O[C@](O)(CC(O)C(O)CCC(O)CC(O)CC(O)CC(=O)O[C@H]1C)CC(O)C2C(=O)O (stereo partly shown) [nystatin, reference compound]
[6]
  Minimum inhibitory concentration (MIC): 16.6 ^e µg/mL
[9]
  Minimum inhibitory concentration (MIC): 8.3 ^e µg/mL
[10]; Mucor hiemalis DSM 2656, n.i.: no inhibition
  Minimum inhibitory concentration (MIC): 16.6 ^e µg/mL
[11]
  Minimum inhibitory concentration (MIC): 16.6 ^e µg/mL
[12]
  Minimum inhibitory concentration (MIC): 16.6 ^e µg/mL
[15]; 20 µg/paper disc
  Antifungal activity, inhibition diameter: 21 mm
[15]; [17]
  Antifungal activity, inhibition diameter: 24 mm

## CN(C)[C@@H]1C(O)=C(C(N)=O)C(=O)[C@@]2(O)C(O)=C3C(=O)c4c(O)cccc4[C@@](C)(O)[C@H]3[C@H](O)[C@@H]12 [oxytetracycline, reference compound]
[8]; DSM30191, n.i.: no inhibition, read-out: Minimum inhibitory concentration (MIC)
  MIC: 0.83 µg/mL (≈ 1.8 µM)
[13]; DSM10, read-out: Minimum inhibitory concentration (MIC)
  MIC: 16.6 µg/mL (≈ 36.1 µM)

## C/C(=C\c1csc(C)n1)[C@@H]1C[C@@H]2O[C@]2(C)CCC[C@H](C)[C@H](O)[C@@H](C)C(=O)C(C)(C)[C@@H](O)CC(=O)O1 [epothilone B, reference compound]
[16]; human, A431
  pIC50: 10.19
[16]; human, A549
  pIC50: 10.28
[16]; human, KB3.1, n.c.: no cytotoxicity
  pIC50: 10.35
[16]; human, MCF-7
  pIC50: 10.08
[16]; human, PC-3
  pIC50: 9.55
[16]; human, SKOV-3
  pIC50: 9.74
[16]; mouse, L929, n.c.: no cytotoxicity
  pIC50: 9.37

## gentamycin [reference compound]
[4]
  Minimum inhibitory concentration (MIC): 0.21 ^b µg/mL
[5]
  Minimum inhibitory concentration (MIC): 0.83 ^b µg/mL
[7]
  Minimum inhibitory concentration (MIC): 0.21 ^b µg/mL

## CC(C)=CCC/C(C)=C/CC/C(C)=C/CO [Farnesol, farnesol, reference compound]
[2]; 15.6 µg/mL
  Antibiofilm activity, C. albicans: 55
[2]; 31.3 µg/mL
  Antibiofilm activity, C. albicans: 66
[2]; 62.5 µg/mL
  Antibiofilm activity, C. albicans: 71
[2]; 250 µg/mL
  Antibiofilm activity, C. albicans: 81

## NC[C@H]1O[C@H](O[C@H]2[C@H](O)[C@@H](O[C@H]3O[C@H](CO)[C@@H](O)[C@H](N)[C@H]3O)[C@H](N)C[C@@H]2N)[C@H](O)[C@@H](O)[C@@H]1O [kanamycin, reference compound]
[3]
  Minimum inhibitory concentration (MIC): 1.7 ^d µg/mL
